Values after ≈ are worked out from the molar mass of the structure shown.
Legend:
[1] = molecular target: Protein kinase C alpha type (Homo sapiens, UniProt P17252); test: Displacement of [3H]PDBu form PKCalpha
NCI-H460 = test: Growth inhibition of human NCI-H460 cells by NCI-method; assay type: functional
SF-295 = test: Growth inhibition of human SF295 cells by NCI-method; assay type: functional
SK-MEL-5 = test: Growth inhibition of human SK-MEL-5 cells by NCI-method; assay type: functional
KM-20L2 = test: Growth inhibition of human KM20L2 cells by NCI-method; assay type: functional
A498 = test: Growth inhibition of human A498 cells by NCI-method; assay type: functional
P388 = test: Cytotoxicity against mouse P388 cells; assay type: functional; conditions: read-out: ED50 (the source's name)
OVCAR-3 = test: Growth inhibition of human OVCAR-3 cells by NCI-method; assay type: functional

Compound | Ki [1] | GI50 (NCI-H460) | GI50 (SF-295) | GI50 (SK-MEL-5) | GI50 (KM-20L2) | GI50 (A498) | EC50 (P388) | GI50 (OVCAR-3)
COC(=O)/C=C1/C[C@H]2C[C@]3(O)O[C@H](C[C@@H](O)CC(=O)O[C@@H]([C@@H](C)O)C[C@@H]4C/C(=C\C(=O)OC)C[C@@](O)(O4)C(C)(C)/C=C/[C@@H](C1)O2)C[C@H](OC(=O)C(C)(C)C)C3(C)C [BRYOSTATIN 10] | 1.56 nM | – | – | – | – | – | – | –
COC(=O)/C=C1/C[C@H]2C[C@]3(O)O[C@H](C[C@@H](O)CC(=O)O[C@@H]([C@@H](C)O)C[C@@H]4C/C(=C/C(=O)OC)C[C@@](O)(O4)C(C)(C)/C=C/[C@@H](C1)O2)C[C@H](OC(=O)C(C)(C)C)C3(C)C [BRYOSTATIN 18] | 4.82 nM | 0.42 µg/mL (≈ 0.519 µM) | 0.42 µg/mL (≈ 0.519 µM) | 0.42 µg/mL (≈ 0.519 µM) | 0.42 µg/mL (≈ 0.519 µM) | 0.42 µg/mL (≈ 0.519 µM) | 0.0033 µg/mL (≈ 0.00408 µM) | 0.42 µg/mL (≈ 0.519 µM)
COC(=O)/C=C1\C=C2O[C@@H](C1)C[C@H]([C@@H](C)O)OC(=O)C[C@H](O)C[C@@H]1C[C@H](OC(=O)C(C)(C)C)C(C)(C)[C@](O)(C[C@@H]3C/C(=C/C(=O)OC)C[C@H](/C=C/C2(C)C)O3)O1 [BRYOSTATIN 17] | 188 nM | 0.16 µg/mL (≈ 0.202 µM) | 0.16 µg/mL (≈ 0.202 µM) | 0.16 µg/mL (≈ 0.202 µM) | 0.16 µg/mL (≈ 0.202 µM) | 0.16 µg/mL (≈ 0.202 µM) | 0.019 µg/mL (≈ 0.024 µM) | 0.16 µg/mL (≈ 0.202 µM)
COC(=O)/C=C1/C[C@H]2C[C@]3(O)O[C@H](C[C@@H](O)CC(=O)O[C@@H]([C@@H](C)O)C[C@@H]4C/C(=C\C(=O)OC)C=C(O4)C(C)(C)/C=C/[C@@H](C1)O2)C[C@H](OC(=O)C(C)(C)C)C3(C)C [BRYOSTATIN 16] | 118 nM | 0.019 µg/mL (≈ 0.024 µM) | 1.4 µg/mL (≈ 1.77 µM) | 1.2 µg/mL (≈ 1.52 µM) | 2.2 µg/mL (≈ 2.78 µM) | 1.9 µg/mL (≈ 2.4 µM) | 0.0093 µg/mL (≈ 0.0118 µM) | 1.9 µg/mL (≈ 2.4 µM)

— ChEMBL document CHEMBL1158205, “Antineoplastic agents. 340. Isolation and structural elucidation of bryostatins 16-18” (J Nat Prod, 1996)
